The values below come from patent US9987371B2 (priority 2013, dated 2018).

“Also recorded” adds a separate entry of the source. Like-named read-outs stand apart in the source and are kept apart here.

The test system of data set [1] is GFP in B16 GFP cells. The data set is classed as cell-based. The following applies: for Able to transfect?: GFP knockdown at 50 nM; for outcome of screening for GFP siRNA delivery: peptide:polynucleotide ratio between 50:1 and 200:1.
Data set [2] deals with B16 GFP cells. Nature of the data set: Alamar Blue cell viability of transfected B16 GFP cells. The data set is classed as cell-based. How it is done:
Cell viability was determined 72 hours post transfection using Alamar Blue (Life technologies). Briefly, Alamar Blue was diluted 1:10 into phenol red free medium and incubated with cells for 2-4 hours. Fluorescence was measured on a fluorescent plate reader with excitation at 570 nm and emission at 585 nm (Varian Cary Eclipse, Agilent Technologies, Santa Clara, Calif.).
B16 GFP cells were transfected with increasing concentrations of p5RHH/siRNA nanoparticles containing GFP-specific or scrambled siRNA. For comparison, B16 GFP cells were also transfected with increasing concentrations of GFP specific or scrambled siRNA using lipofectamine 2000. RNA extracted from transfected cells was analyzed using Northern blot analysis, and normalized viability of transfected B16 cells was determined (FIG. 28).

Data set [3] deals with Rabbit red blood cells (RBC). Put plainly: RBC hemolysis. The class given is cell-based. How it is done: The lytic capacity of liberated p5RHH can be quantified in vitro with red blood cell (RBC) hemolysis assays. When incubated at decreasing pH, the ability of p5RHH/siRNA nanoparticles to lyse RBC is enhanced, due to the release of free p5RHH at pH ≤5.5 (FIG. 210). These assays were performed at 4° C. to decrease the rate of auto-hemolysis observed at higher temperatures.
Rabbit red blood cells (RBC) were isolated from whole blood by centrifugation and washed in PBS 3× before storage at 4° C. Prior to hemolysis studies, RBC were washed 3× in pH appropriate HBSS and diluted 1 to 5000. RBCs in pH-specific buffer were then incubated with p5RHH/siRNA nanoparticles for 12 hours. The RBC remnants were pelleted by centrifugation and the hemoglobin content of the supernatant was measured by UV absorbance at 550 nm. Absorbance values were then normalized against maximum lysis by p5RHH only controls and presented as the average of 3 separate experiments.

In data set [4] the test system is B16-F10 cells.
For data set [5], the system named is HUVEC cells.
Data set [6] concerns RAW264.7 cells.
For data set [7] the following is noted: all tested doses, Hou et al., 2013; cited from earlier work.
Data set [8] has as its system B16-F10 cells. The data set is classed as cell-based.
The test system of data set [9] is GFP in B16 GFP cells. The data set is classed as cell-based.
For data set [10], the system named is B16F10 cells. Put plainly: Confocal microscopy of cytoplasmic oligonucleotide release in B16 cells. The class given is cell-based.
For data set [11], the system named is B16F10 cells. Nature of the data set: Acridine orange staining for endosomal/lysosomal disruption. The class given is cell-based. As to conditions: 100 nM siRNA, 12 hours. Here is the method: Endosomal disruption in living cells was observed by acridine orange staining. Cells were first loaded with acridine orange (10 μM, 15 minutes), which fluoresces red at low pH in the endosome but green at cytoplasmic pH. Endosomal disruption can be visualized by an increase in cytoplasmic green fluorescence in the presence of 100 μM chloroquine (FIG. 21F).
B16F10 cells plated on coverslips are loaded with acridine orange at 10 μM for 15 minutes and washed for 3× in PBS before incubation in the presence of p5RHH/siRNA nanoparticles in 10% DMEM at a final siRNA concentration of 100 nM for 12 hours. Alternatively, cells were exposed to chloroquine (Sigma) at 100 μM for 15 minutes prior to imaging. Live cells were visualized by fluorescence microscopy on an Olympus BX610 (Tokyo, Japan).

Setting [12] is: charge ratio (+/−) 6:1 (peptide/siRNA 62:1, 28:1 or 50:1 by peptide).
Setting [13] is: charge ratio (+/−) 12:1 (peptide/siRNA 124:1, 56:1 or 100:1 by peptide).
The mark [14] stands for this setting: charge ratio (+/−) 24:1 (peptide/siRNA 248:1, 112:1 or 200:1 by peptide).

In the case of `CC[C@H](C)[C@H](NC(=O)CN)C(=O)NCC(=O)N[C@@H](C)C(=O)N[C@H](C(=O)N[C@@H](CC(C)C)C(=O)N[C@@H](CCCCN)C(=O)N[C@H](C(=O)N[C@@H](CC(C)C)C(=O)N[C@H](C(=O)N[C@H](C(=O)NCC(=O)N[C@@H](CC(C)C)C(=O)N1CCC[C@H]1C(=O)N[C@@H](C)C(=O)N[C@@H](CC(C)C)C(=O)N[C@H](C(=O)N[C@@H](CO)C(=O)N[C@@H](Cc1c[nH]c2ccccc12)C(=O)N[C@H](C(=O)N[C@@H](CCCCN)C(=O)N[C@@H](CCCNC(=N)N)C(=O)N[C@@H](CCCCN)C(=O)N[C@@H](CCCNC(=N)N)C(=O)N[C@@H](CCC(N)=O)C(=O)N[C@@H](CCC(N)=O)C(N)=O)[C@@H](C)CC)[C@@H](C)CC)[C@@H](C)O)[C@@H](C)O)C(C)C)C(C)C` [Melittin, reference compound], the “Able to transfect?” value in data set [1] (setting [12]) is recorded as “No”; in data set [1] (setting [13]), “Toxic”; in data set [1] (setting [14]), “Toxic”. Besides, the “outcome of screening for GFP siRNA delivery” value (from here on “outcome of screening”) in [1] is given as “too toxic”.
VLKVLTTLAPALISWIRRRHRRC [p5RH-LL]: the “Able to transfect?” value in [1] (setting [12]) is “No”; in data set [1] (setting [13]), “Yes”; in data set [1] (setting [14]), “No”. In addition, in data set [1], the “outcome of screening” value is listed as “able to transfect”.
For the compound `CC[C@H](C)[C@H](NC(=O)[C@H](CC(C)C)NC(=O)[C@H](C)NC(=O)[C@@H]1CCCN1C(=O)[C@H](CC(C)C)NC(=O)CNC(=O)[C@@H](NC(=O)[C@@H](NC(=O)[C@H](CC(C)C)NC(=O)[C@@H](N)C(C)C)[C@@H](C)O)[C@@H](C)O)C(=O)N[C@@H](CO)C(=O)N[C@@H](Cc1c[nH]c2ccccc12)C(=O)N[C@H](C(=O)N[C@@H](CCCNC(=N)N)C(=O)N[C@@H](CCCNC(=N)N)C(=O)N[C@@H](CCCNC(=N)N)C(=O)N[C@@H](Cc1c[nH]cn1)C(=O)N[C@@H](CCCNC(=N)N)C(=O)N[C@@H](CCCNC(=N)N)C(=O)N[C@@H](Cc1c[nH]cn1)C(=O)N[C@@H](CS)C(=O)O)[C@@H](C)CC` [p5RHH], in data set [2] (Alamar blue, 50 nM siRNA), the “cytotoxicity at p5RHH:siRNA ratios up to 200:1” value is given as “no sign of cytotoxicity”. For the same compound, in data set [2] (highest concentrations tested), the “decrease in cell viability” value is recorded as about 3%. Further, the “toxicity by Alamar blue” value in [2] (siRNA concentrations up to 200 nM) is on record as “minimal toxicity”. Moreover, the IC50 in [3] (free peptide, normalized to 0.1% Triton-X, read-out: IC50 of RBC lysis) was 200 to 400 µM. Besides, the “pH at which hemolysis / hemoglobin release is increased” value in data set [3] (p5RHH/siRNA nanoparticles, 4° C.) is at most 5.5. For the same compound, the “nonspecific cytotoxicity (B16 viability)” value in data set [4] is recorded as “no effect on B16 viability”. In addition, the “decreased B16-F10 viability” value in [4] (mouse) stood at 60%. Besides, in [5], the “cytotoxicity towards HUVEC cells” value is listed as “no cytotoxicity”. In data set [6], the “cytotoxicity in RAW264.7 cells” value is recorded as “without cytotoxicity” and the “decrease in cell viability” value is reported as about 5%. The cytotoxicity entry in data set [7] is given as “without significant cytotoxicity”.
Turning to VLTTGLPALISWIRRRHRRC [p5RH], the “Able to transfect?” value was “No” in [1] (setting [12]), “Yes” in data set [1] (setting [13]) and “No” in [1] (setting [14]). Further, in data set [1], the “outcome of screening” value was “able to transfect”.
As to `CCCCC[C@@H](O)[C@H]1C(=O)O[C@H](C)[C@@H](O)/C=C/C=C/C=C/C=C/C=C(\C)[C@@H](O)C[C@H](O)C[C@H](O)C[C@H](O)C[C@H](O)C[C@H](O)C[C@@H]1O` [filipin], in [8], the “effect of endocytosis inhibitor on p5RHH/siRNA nanoparticle uptake” value was “no effect; also recorded: do not inhibit”.
For `CCN(CC)CCCC(C)Nc1ccnc2cc(Cl)ccc12` (centres unmarked) [chloroquine, reference compound], the “effect of chloroquine on p5RHH mediated GFP knockdown” value in [9] is given as “does not improve knockdown”.
Turning to VLTTGLPALISWIKRKRQQC [Peptide 5C], the “Able to transfect?” value in data set [1] (setting [12]), in [1] (setting [13]) and in data set [1] (setting [14]) was “No” throughout.
Consider `CO/C1=C\C(C)=C\[C@@H](C)[C@@H](O)[C@@H](C)C/C(C)=C/C=C/[C@H](OC)[C@@H]([C@@H](C)[C@@H](O)[C@H](C)[C@@]2(O)C[C@@H](O)[C@H](C)[C@@H](C(C)C)O2)OC1=O` [bafilomycin A1, reference compound], for which, in [1], the “effect of bafilomycin A1 on p5RHH mediated GFP knockdown” value is listed as “near complete loss of GFP knockdown; also recorded: blocks knockdown of GFP”. For the same compound, the “effect of bafilomycin A1 on p5RHH/siRNA uptake” value in data set [8] is “did not impair p5RHH/siRNA uptake; also recorded: does not inhibit uptake”.
For the compound VLTTGLPALISWIKRKRQQRWRRRR [p5RWR], the “Able to transfect?” value in data set [1] (setting [12]), in data set [1] (setting [13]) and in data set [1] (setting [14]) was “No” throughout. Besides, the “siRNA transfection ability (GFP knockdown)” value in data set [1] (flow cytometry, without / with 50 μM chloroquine) is listed as “unable to initiate GFP knockdown without the aid of chloroquine; also recorded: no siRNA transfection ability”. Also, the “GFP knockdown by western blotting” value in [9] is on record as “unable to induce GFP knockdown even in the presence of chloroquine”. In data set [10], the “oligonucleotide release into the cytoplasm” value is “do not reach the cytoplasm; also recorded: does not manifest appreciable oligonucleotide release into the cytoplasm”. Moreover, the “endosomal disruption (acridine orange release)” value in data set [11] is “cannot”.
As for `CCN(c1nc(N)c(C(=O)NC(=N)N)nc1Cl)C(C)C` [EIPA], in data set [8], the “effect of endocytosis inhibitor on p5RHH/siRNA nanoparticle uptake” value is listed as “dramatically reduces p5RHH/siRNA uptake; also recorded: nearly abolishes nanoparticle uptake”.
